Measurements as given in PMC12163684, “Gunacins: Novel Benzo[g]chromene Derivatives from the Fungus Exobasidium sp. and Their Potent Anti-Leishmania and Trypanosoma Activities” (ACS Omega, 2025).
Like-named read-outs stand apart in the source and are kept apart here.

System: RTL-W1 cell line
Test: Cell viability assay with fluorescent indicators AB, CFDA-AM and NR
Assay type: cell-based, rainbow trout (Oncorhynchus mykiss)
Details: Oncorhynchus mykiss, 24 h exposure, n.d. = activity not detected at highest tested concentration 150 μM
Procedure: Cell viability assay was determined on cell line RTL-W1 (obtained from Eawag, Switzerland; liver tissue) of rainbow trout (Oncorhynchus mykiss) according to the modified procedure of Dayeh (2005). A combination of three fluorescent indicators, alamarBlue (AB), 5-carboxyfluorescein diacetate acetoxymethyl ester (CFDA-AM), and NR was used to assess different mechanisms of toxic action, evaluate the general cellular response and increase the sensitivity of the cytotoxicity tests. […] After 24 h of incubation in microculturing plates, the cells were exposed to concentration series of isolated compounds in 0.5% DMSO for another 24 h. After the exposition, the solutions were removed from individual wells followed by the washing step and the addition of 100 μL of a dye solution containing 0.625% AB and 0.4 μM CFDA-AM in […]. The cells were incubated at room temperature for 30 min, and the fluorescence was measured at excitation/emission wavelengths of 535/590 nm for the AB assay and 485/535 nm for the CFDA-AM assay. Afterward, the dye solution was removed, the cells were rinsed, and 100 μL of the NR solution was added (0.03 mg/mL in […]). After 60 min of incubation, the cells were rinsed twice, and NR was extracted from the cells using 150 μL of a solution consisting of 1% (v/v) glacial acetic acid in 50% (v/v) ethanol. The content of each well was repeatedly homogenized using a pipet, and the fluorescence was measured at excitation/emission wavelengths of 535/630 nm.

[1] = Alamar Blue, cellular metabolic activity, read-out: EC50 ± SEM RTL-W1 (AB)
[2] = CFDA-AM, cell membrane integrity, read-out: EC50 ± SEM RTL-W1 (CFDA)
[3] = Neutral Red, lysosomal membrane integrity, read-out: EC50 ± SEM RTL-W1 (NR)

Compound	EC50 [1]	EC50 [2]	EC50 [3]
COc1cc(O)c2c(c1)C(=O)C1=C(C2=O)[C@@H](O)[C@@H](OC(C)=O)[C@@H](C)O1 [Compound 5, (2R,3R,4R)-4,6-dihydroxy-8-methoxy-2-methyl-5,10-dioxo-3,4,5,10-tetrahydro-2H-benzo[g]chromen-3-yl acetate]	2500 ± 300 nM	2100 ± 100 nM	900 ± 100 nM
COc1cc(O)c2c(c1)C(=O)C1=C(C2=O)[C@@H](OC(C)=O)[C@@H](O)[C@@H](C)O1 [Compound 1, (2R,3S,4R)-3,6-dihydroxy-8-methoxy-2-methyl-5,10-dioxo-3,4,5,10-tetrahydro-2H-benzo[g]chromen-4-yl acetate]	500 nM	800 ± 100 nM	300 nM
